Results taken from patent US20250262201A1, “COMPOUNDS AND METHODS USEFUL FOR STABILIZING PHENYLALANINE HYDROXYLASE MUTATIONS” (Agios Pharmaceuticals, Inc., priority 2022, published 2025).

Molecular target: T1, human PAH with the R408W mutation (Homo sapiens, UniProt P00439, R408W)
T1 construct: expressed in transfected cells
T1 sequence (P00439 1-452 R408W): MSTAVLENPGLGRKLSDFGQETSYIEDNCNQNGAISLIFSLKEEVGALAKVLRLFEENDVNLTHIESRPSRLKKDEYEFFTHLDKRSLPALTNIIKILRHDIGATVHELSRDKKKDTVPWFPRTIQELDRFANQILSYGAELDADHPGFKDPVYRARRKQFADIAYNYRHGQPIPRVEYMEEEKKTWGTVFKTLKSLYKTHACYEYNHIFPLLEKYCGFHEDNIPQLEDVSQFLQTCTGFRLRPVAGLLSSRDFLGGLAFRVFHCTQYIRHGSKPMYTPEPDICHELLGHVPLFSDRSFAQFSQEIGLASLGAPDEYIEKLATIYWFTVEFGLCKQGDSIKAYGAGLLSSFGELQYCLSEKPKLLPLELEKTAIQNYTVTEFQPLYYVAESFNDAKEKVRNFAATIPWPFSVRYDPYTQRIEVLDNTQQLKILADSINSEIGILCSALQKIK
Experiment: Cell Based Phenylalanine Flux Assay
Details: A375 cells expressing human R408W PAH; 24 hrs compound incubation; 13C-Tyrosine by LC-MS; average where tested multiple times; read-out: AC50
Procedure: Compounds were resuspended in DMSO, and 2-fold serial dilutions were performed to generate a 10-point dose curve. Compounds were added to plated cells in a total volume of 100 pal, and a final DMSO concentration of 0.5%. Each compound was tested in duplicate. Following compound addition, cells were placed in a 5% CO2, 37° C. tissue culture incubator for 24 hrs. After the incubation period, 20 μM sepiapterin and 800 μM 13C9,15N-Phenylalanine were added. After 4 hours, cell media was removed. An aliquot of 10 μl of cell media was combined with 200 μl of extraction buffer (80% acetonitrile/20% H2O) for each well. Determination of ^13C-Tyrosine concentration was assessed by liquid chromatography mass spectrometry.

Compound | AC50 [nM]
Cc1nc(C(C)(C)O)oc1C(=O)N1C[C@@H](C)c2[nH]cnc2[C@H]1c1cc2ccccc2cn1 [Example 392, (2-(2-hydroxypropan-2-yl)-4-methyloxazol-5-yl)((4R,7R)-4-(isoquinolin-3-yl)-7-methyl-6,7-dihydro-1H-imidazo[4,5-c]pyridin-5(4H)-yl)methanone] | 500 to 1000
COCc1ncc(C(=O)N2CCc3[nH]cnc3[C@H]2c2cc3ccccc3cn2)s1 [Example 393, (R)-(4-(isoquinolin-3-yl)-6,7-dihydro-1H-imidazo[4,5-c]pyridin-5(4H)-yl)(2-(methoxymethyl)thiazol-5-yl)methanone] | 500 to 1000
C[C@H]1CN(C(=O)c2cnc(C(C)(C)O)o2)[C@H](c2cc3ccccc3cn2)c2nc[nH]c21 [Example 395, (2-(2-hydroxypropan-2-yl)oxazol-5-yl)((4R,7S)-4-(isoquinolin-3-yl)-7-methyl-6,7-dihydro-1H-imidazo[4,5-c]pyridin-5(4H)-yl)methanone] | 500 to 1000
C[C@H]1CN(C(=O)c2cnc(C(C)(C)O)o2)[C@@H](c2cc3ccccc3cn2)c2nc[nH]c21 [Example 396, (2-(2-hydroxypropan-2-yl)oxazol-5-yl)((4S,7S)-4-(isoquinolin-3-yl)-7-methyl-6,7-dihydro-1H-imidazo[4,5-c]pyridin-5(4H)-yl)methanone] | 1000 to 5000
C[C@@H]1CN(C(=O)c2cnc(C(C)(C)O)o2)[C@H](c2cc3ccccc3cn2)c2nc[nH]c21 [Example 398, (2-(2-hydroxypropan-2-yl)oxazol-5-yl)((4R,7R)-4-(isoquinolin-3-yl)-7-methyl-6,7-dihydro-1H-imidazo[4,5-c]pyridin-5(4H)-yl)methanone] | 1000 to 5000
C[C@H]1CN(C(=O)c2oc(C(C)(C)O)nc2C2CC2)[C@H](c2cc3ccccc3cn2)c2nc[nH]c21 [Example 399, (4-cyclopropyl-2-(2-hydroxypropan-2-yl)oxazol-5-yl)((4R,7S)-4-(isoquinolin-3-yl)-7-methyl-6,7-dihydro-1H-imidazo[4,5-c]pyridin-5(4H)-yl)methanone] | < 500
C[C@@H]1CN(C(=O)c2oc(C(C)(C)O)nc2C2CC2)[C@H](c2cc3ccccc3cn2)c2nc[nH]c21 [Example 402, (4-cyclopropyl-2-(2-hydroxypropan-2-yl)oxazol-5-yl)((4R,7R)-4-(isoquinolin-3-yl)-7-methyl-6,7-dihydro-1H-imidazo[4,5-c]pyridin-5(4H)-yl)methanone] | < 500
Cc1nc(-c2ccccn2)oc1C(=O)N1C[C@H](C)c2[nH]cnc2[C@@H]1c1cc2ccccc2cn1 [Example 404, ((4S,7S)-4-(isoquinolin-3-yl)-7-methyl-6,7-dihydro-1H-imidazo[4,5-c]pyridin-5(4H)-yl)(4-methyl-2-(pyridin-2-yl)oxazol-5-yl)methanone] | > 5000
Cc1nc(-c2ccccn2)oc1C(=O)N1C[C@@H](C)c2[nH]cnc2[C@@H]1c1cc2ccccc2cn1 [Example 405, [(4S,7R)-4-(3-isoquinolyl)-7-methyl-1,4,6,7-tetrahydroimidazo[4,5-c]pyridin-5-yl]-[4-methyl-2-(2-pyridyl)oxazol-5-yl]methanone] | 1000 to 5000
C[C@H]1CN(C(=O)c2oc(-c3ccccn3)nc2C2CC2)[C@H](c2cc3ccccc3cn2)c2nc[nH]c21 [Example 407, (4-cyclopropyl-2-(pyridin-2-yl)oxazol-5-yl)((4R,7S)-4-(isoquinolin-3-yl)-7-methyl-6,7-dihydro-1H-imidazo[4,5-c]pyridin-5(4H)-yl)methanone] | < 500
C[C@H]1CN(C(=O)c2oc(-c3ccccn3)nc2C2CC2)[C@@H](c2cc3ccccc3cn2)c2nc[nH]c21 [Example 408, (4-cyclopropyl-2-(pyridin-2-yl)oxazol-5-yl)((4S,7S)-4-(isoquinolin-3-yl)-7-methyl-6,7-dihydro-1H-imidazo[4,5-c]pyridin-5(4H)-yl)methanone] | 500 to 1000
CC(C)(F)c1nnc(C(=O)N2CCc3[nH]cnc3[C@H]2c2cc3ccccc3cn2)o1 [Example 419, (R)-(5-(2-fluoropropan-2-yl)-1,3,4-oxadiazol-2-yl)(4-(isoquinolin-3-yl)-6,7-dihydro-1H-imidazo[4,5-c]pyridin-5(4H)-yl)methanone] | < 500
CC(C)(O)c1nc(C(=O)N2CCc3[nH]cnc3[C@H]2c2cc3ccccc3cn2)no1 [Example 421, (R)-(5-(2-hydroxypropan-2-yl)-1,2,4-oxadiazol-3-yl)(4-(isoquinolin-3-yl)-6,7-dihydro-1H-imidazo[4,5-c]pyridin-5(4H)-yl)methanone] | 500 to 1000
CC(C)(O)c1noc(C(=O)N2CCc3[nH]cnc3[C@H]2c2cc3ccccc3cn2)n1 [Example 422, (R)-(3-(2-hydroxypropan-2-yl)-1,2,4-oxadiazol-5-yl)(4-(isoquinolin-3-yl)-6,7-dihydro-1H-imidazo[4,5-c]pyridin-5(4H)-yl)methanone] | 1000 to 5000
O=C(c1nnc(N2CC(F)C2)o1)N1CCc2[nH]cnc2[C@H]1c1cc2ccccc2cn1 [Example 424, (R)-(5-(3-fluoroazetidin-1-yl)-1,3,4-oxadiazol-2-yl)(4-(isoquinolin-3-yl)-6,7-dihydro-1H-imidazo[4,5-c]pyridin-5(4H)-yl)methanone] | < 500
O=C(c1nnc(N2CCC(F)CC2)o1)N1CCc2[nH]cnc2[C@H]1c1cc2ccccc2cn1 [Example 425, (R)-(5-(4-fluoropiperidin-1-yl)-1,3,4-oxadiazol-2-yl)(4-(isoquinolin-3-yl)-6,7-dihydro-1H-imidazo[4,5-c]pyridin-5(4H)-yl)methanone] | < 500
C[C@H]1CN(C(=O)c2nnc(C(C)(C)C)o2)[C@@H](c2cc3ccccc3cn2)c2nc[nH]c21 [Example 427, (5-(tert-butyl)-1,3,4-oxadiazol-2-yl)((4S,7S)-4-(isoquinolin-3-yl)-7-methyl-6,7-dihydro-1H-imidazo[4,5-c]pyridin-5(4H)-yl)methanone] | 1000 to 5000
C[C@H]1CN(C(=O)c2nnc(C(C)(C)C)o2)[C@H](c2cc3ccccc3cn2)c2nc[nH]c21 [Example 428, (5-(tert-butyl)-1,3,4-oxadiazol-2-yl)((4R,7S)-4-(isoquinolin-3-yl)-7-methyl-6,7-dihydro-1H-imidazo[4,5-c]pyridin-5(4H)-yl)methanone] | 500 to 1000

The remaining lines, values ahead:

AC50 [nM] | Compound
500 to 1000 | COCc1ncc(C(=O)N2CCc3[nH]cnc3[C@H]2c2cc3ccccc3cn2)o1 [Example 394, (R)-(4-(isoquinolin-3-yl)-6,7-dihydro-1H-imidazo[4,5-c]pyridin-5(4H)-yl)(2-(methoxymethyl)oxazol-5-yl)methanone]
1000 to 5000 | C[C@H]1CN(C(=O)c2oc(C(C)(C)O)nc2C2CC2)[C@@H](c2cc3ccccc3cn2)c2nc[nH]c21 [Example 400, (4-cyclopropyl-2-(2-hydroxypropan-2-yl)oxazol-5-yl)((4S,7S)-4-(isoquinolin-3-yl)-7-methyl-6,7-dihydro-1H-imidazo[4,5-c]pyridin-5(4H)-yl)methanone]
1000 to 5000 | C[C@@H]1CN(C(=O)c2oc(C(C)(C)O)nc2C2CC2)[C@@H](c2cc3ccccc3cn2)c2nc[nH]c21 [Example 401, (4-cyclopropyl-2-(2-hydroxypropan-2-yl)oxazol-5-yl)((4S,7R)-4-(isoquinolin-3-yl)-7-methyl-6,7-dihydro-1H-imidazo[4,5-c]pyridin-5(4H)-yl)methanone]
< 500 | Cc1nc(-c2ccccn2)oc1C(=O)N1C[C@H](C)c2[nH]cnc2[C@H]1c1cc2ccccc2cn1 [Example 403, ((4R,7S)-4-(isoquinolin-3-yl)-7-methyl-6,7-dihydro-1H-imidazo[4,5-c]pyridin-5(4H)-yl)(4-methyl-2-(pyridin-2-yl)oxazol-5-yl)methanone]
< 500 | Cc1nc(-c2ccccn2)oc1C(=O)N1C[C@@H](C)c2[nH]cnc2[C@H]1c1cc2ccccc2cn1 [Example 406, [(4R,7R)-4-(3-isoquinolyl)-7-methyl-1,4,6,7-tetrahydroimidazo[4,5-c]pyridin-5-yl]-[4-methyl-2-(2-pyridyl)oxazol-5-yl]methanone]
< 500 | C[C@@H]1CN(C(=O)c2oc(-c3ccccn3)nc2C2CC2)[C@H](c2cc3ccccc3cn2)c2nc[nH]c21 [Example 410, (4-cyclopropyl-2-(pyridin-2-yl)oxazol-5-yl)((4R,7R)-4-(isoquinolin-3-yl)-7-methyl-6,7-dihydro-1H-imidazo[4,5-c]pyridin-5(4H)-yl)methanone]
1000 to 5000 | O=C(C1CN(CC(F)(F)F)C1)N1CCc2[nH]cnc2[C@H]1c1cc2ccccc2cn1 [Example 420, (R)-(4-(isoquinolin-3-yl)-6,7-dihydro-1H-imidazo[4,5-c]pyridin-5(4H)-yl)(1-(2,2,2-trifluoroethyl)azetidin-3-yl)methanone]
< 500 | Cn1nc(C(F)F)nc1C(=O)N1CCc2[nH]cnc2[C@H]1c1cc2ccccc2cn1 [Example 423, (R)-(3-(difluoromethyl)-1-methyl-1H-1,2,4-triazol-5-yl)(4-(isoquinolin-3-yl)-6,7-dihydro-1H-imidazo[4,5-c]pyridin-5(4H)-yl)methanone]
< 500 | O=C(c1nnc(-c2ccn(C(F)F)n2)o1)N1CCc2[nH]cnc2[C@H]1c1cc2ccccc2cn1 [Example 426, (R)-(5-(1-(difluoromethyl)-1H-pyrazol-3-yl)-1,3,4-oxadiazol-2-yl)(4-(isoquinolin-3-yl)-6,7-dihydro-1H-imidazo[4,5-c]pyridin-5(4H)-yl)methanone]
